Reference: article PMC10229426, “An optimized bioluminescent substrate for non-invasive imaging in the brain” (Nature Chemical Biology, 2023)
Where “and” joins values, the source holds several entries; their conditions need not be identical. Identical values can stand only once. Entries after “also recorded” stand apart in the source; their conditions may differ.

Assays:
[1] = Toxicity in mice: necropsy and histopathology; format: in vivo, C57BL/6 mice; parameters: key to BMH, brain multifocal hemorrhage score / HN, hepatocellular necrosis score / RTD, renal tubular dilation score / RTDR, renal tubular degeneration and regeneration score: 0: absent; 1: minimal; 2: mild; 3: moderate; 4: severe; key to HMNH, heart myocardial necrosis and hemorrhage score: 0: no lesions; 1: <5% of myocardium affected; 2: 5-10% affected; 3: 10-25% affected; 4: >25% affected; key to SRPHMV, splenic red pulp histiocytosis with microvesicular vacuolation score: 0: no lesions; 1: lesions present; key to LC, Liver capsule score: 0: normal; 1: segmental subcapsular necrosis +/- neutrophilic infiltrate; Total organ score: scale not given here; conditions: for toxicity after a single i.p. injection: 4.2 µmol with 20 mg P-407, one injection; for BMH, brain multifocal hemorrhage score / HMNH, heart myocardial necrosis and hemorrhage score / HN, hepatocellular necrosis score / LC, Liver capsule score / RTD, renal tubular dilation score / RTDR, renal tubular degeneration and regeneration score / SRPHMV, splenic red pulp histiocytosis with microvesicular vacuolation score / Total organ score / ∆ weight: individual mice
Experimental: (§1) Male C57BL/6 mice of 2 months of age were killed by CO2 asphyxiation and cardiac exsanguination. All mice were weighed, and a complete gross examination of the external and internal organs was performed. […] Formalin-fixed tissues were processed routinely, embedded in paraffin, sectioned at 5 μm and stained with hematoxylin and eosin. All slides were blindly evaluated for histologic treatment-related effects (Supplementary Table 1) by a board-certified veterinary pathologist.

[2] = Toxicity in mice: necropsy and histopathology; format: in vivo, C57BL/6 mice; parameters: key: 0: absent; 1: minimal; 2: mild; 3: moderate; 4: severe; conditions: individual mice
Experimental: as §1

Question: With `O=c1c(Cc2ccco2)nc2c(Cc3ccccc3)[nH]c(-c3cccc(F)c3F)cn1-2` [compound 6, cephalofurimazine] as the compound, how does the weight loss ([1]; 1.3 µmol CFz with 12 mg P-407, daily for 3 or 5 d) read?
Answer: Its weight loss is under 5%.

Question: What about the “effects on organ tissues after daily administration” value ([1]; 1.3 µmol CFz with 12 mg P-407, daily i.p. for 3 or 5 d, listed as CFz) of the same compound?
Answer: The value was “mild and well tolerated and Renal lesions were minimal to absent”.

Question: What about the “toxicity after three daily i.p. injections” value ([1]; 4.2 µmol CFz with 20 mg P-407) of the same compound?
Answer: The value was “noticeably toxic to organs”.

Question: And the “toxicity after a single i.p. injection” value [1]?
Answer: Its value is “minimal effects on heart and kidney tissues without weight loss”.

Question: And the “toxicity after a single i.p. injection” value ([1]; listed as CFz)?
Answer: Its value is “minimal toxicity”.

Question: And the “BMH, brain multifocal hemorrhage score” value ([1]; 1 day, 4.2 µmol, 20 mg P-407)?
Answer: The value was 0.

Question: And the “HMNH, heart myocardial necrosis and hemorrhage score” value ([1]; 1 day, 4.2 µmol, 20 mg P-407)?
Answer: The value was 1 (<5% of myocardium affected) and 0 (2×).

Question: What about the “HN, hepatocellular necrosis score” value ([1]; 1 day, 4.2 µmol, 20 mg P-407) of the same compound?
Answer: Its value is 0.

Question: And the “LC, Liver capsule score” value ([1]; 1 day, 4.2 µmol, 20 mg P-407)?
Answer: The value was 0.

Question: What about the “RTD, renal tubular dilation score” value ([1]; 1 day, 4.2 µmol, 20 mg P-407) of the same compound?
Answer: Its value is 0 and 1 (<5% of tubules affected) (2×).

Question: What about the “RTDR, renal tubular degeneration and regeneration score” value ([1]; 1 day, 4.2 µmol, 20 mg P-407) of the same compound?
Answer: The value was 0 (2×) and 1 (<5% of tubules affected).

Question: And the “SRPHMV, splenic red pulp histiocytosis with microvesicular vacuolation score” value (shortened to “SRPHMV, splenic red pulp histiocytosis”) ([1]; 1 day, 4.2 µmol, 20 mg P-407)?
Answer: Its value is 0.

Question: What about the Total organ score ([1]; 1 day, 4.2 µmol, 20 mg P-407) of the same compound?
Answer: Its Total organ score is 2 (2×) and 1.

Question: And the “∆ weight” value ([1]; 1 day, 4.2 µmol, 20 mg P-407)?
Answer: The value was “–0.7% and +0.3% and +1.4%”.

Question: And the “BMH, brain multifocal hemorrhage score” value ([1]; 3 days, 1.3 µmol, 12 mg P-407)?
Answer: Its value is 0.

Question: And the “HMNH, heart myocardial necrosis and hemorrhage score” value ([1]; 3 days, 1.3 µmol, 12 mg P-407)?
Answer: Its value is 1 (<5% of myocardium affected).

Question: What about the “HN, hepatocellular necrosis score” value ([1]; 3 days, 1.3 µmol, 12 mg P-407) of the same compound?
Answer: The value was 0 (2×) and 2.

Question: And the “LC, Liver capsule score” value ([1]; 3 days, 1.3 µmol, 12 mg P-407)?
Answer: Its value is 0.

Question: And the “RTD, renal tubular dilation score” value ([1]; 3 days, 1.3 µmol, 12 mg P-407)?
Answer: The value was 1 (<5% of tubules affected) (2×) and 0.

Question: What about the “RTDR, renal tubular degeneration and regeneration score” value ([1]; 3 days, 1.3 µmol, 12 mg P-407) of the same compound?
Answer: The value was 1 (<5% of tubules affected).

Question: And the “SRPHMV, splenic red pulp histiocytosis” value ([1]; 3 days, 1.3 µmol, 12 mg P-407)?
Answer: The value was 0.

Question: What about the Total organ score ([1]; 3 days, 1.3 µmol, 12 mg P-407) of the same compound?
Answer: The Total organ score was 3 and 2 and 5.

Question: And the “∆ weight” value ([1]; 3 days, 1.3 µmol, 12 mg P-407)?
Answer: The value was “–2.2%; also recorded: –0.4%; also recorded: –1.1%”.

Question: And the “BMH, brain multifocal hemorrhage score” value ([1]; 3 days, 4.2 µmol, 20 mg P-407)?
Answer: Its value is 0.

Question: What about the “HMNH, heart myocardial necrosis and hemorrhage score” value ([1]; 3 days, 4.2 µmol, 20 mg P-407) of the same compound?
Answer: Its value is 2 (5-10% affected) (2×) and 1 (<5% of myocardium affected).

Question: And the “HN, hepatocellular necrosis score” value ([1]; 3 days, 4.2 µmol, 20 mg P-407)?
Answer: The value was 0.

Question: And the “LC, Liver capsule score” value ([1]; 3 days, 4.2 µmol, 20 mg P-407)?
Answer: The value was 0.

Question: And the “RTD, renal tubular dilation score” value ([1]; 3 days, 4.2 µmol, 20 mg P-407)?
Answer: Its value is 3 (25%–50% of tubules affected) (2×) and 2 (5%–25% of tubules affected).

Question: And the “RTDR, renal tubular degeneration and regeneration score” value ([1]; 3 days, 4.2 µmol, 20 mg P-407)?
Answer: The value was 3 (25%–50% of tubules affected) and 2 (5%–25% of tubules affected) (2×).

Question: And the “SRPHMV, splenic red pulp histiocytosis” value ([1]; 3 days, 4.2 µmol, 20 mg P-407)?
Answer: Its value is 1.

Question: What about the Total organ score ([1]; 3 days, 4.2 µmol, 20 mg P-407) of the same compound?
Answer: The Total organ score was 9 (2×) and 6.

Question: And the “∆ weight” value ([1]; 3 days, 4.2 µmol, 20 mg P-407)?
Answer: Its value is “–8.3%; also recorded: –3.7%; also recorded: –3.0%”.

Question: And the “BMH, brain multifocal hemorrhage score” value ([1]; 5 days, 1.3 µmol, 12 mg P-407)?
Answer: The value was 0.

Question: What about the “HMNH, heart myocardial necrosis and hemorrhage score” value ([1]; 5 days, 1.3 µmol, 12 mg P-407) of the same compound?
Answer: The value was 0 (2×) and 1 (<5% of myocardium affected).

Question: And the “HN, hepatocellular necrosis score” value ([1]; 5 days, 1.3 µmol, 12 mg P-407)?
Answer: The value was 0.

Question: What about the “LC, Liver capsule score” value ([1]; 5 days, 1.3 µmol, 12 mg P-407) of the same compound?
Answer: The value was 0.

Question: And the “RTD, renal tubular dilation score” value ([1]; 5 days, 1.3 µmol, 12 mg P-407)?
Answer: The value was 0.

Question: What about the “RTDR, renal tubular degeneration and regeneration score” value ([1]; 5 days, 1.3 µmol, 12 mg P-407) of the same compound?
Answer: The value was 1 (<5% of tubules affected) (2×) and 0.

Question: What about the “SRPHMV, splenic red pulp histiocytosis” value ([1]; 5 days, 1.3 µmol, 12 mg P-407) of the same compound?
Answer: Its value is 1.

Question: And the Total organ score ([1]; 5 days, 1.3 µmol, 12 mg P-407)?
Answer: Its Total organ score is 1 (2×) and 3.

Question: And the “∆ weight” value ([1]; 5 days, 1.3 µmol, 12 mg P-407)?
Answer: The value was “–3.2%; also recorded: –4.6%; also recorded: –1.8%”.

Question: And the “HPMC, heart perivascular myxomatous change score” value ([2]; 1 day, 4.2 µmol, 20 mg P-407)?
Answer: The value was 0.

Question: And the “HT, heart telangiectasia score” value ([2]; 1 day, 4.2 µmol, 20 mg P-407)?
Answer: Its value is 0.

Question: And the “KCHMV, Kupffer cell hyperplasia and microvesicular vacuolation score” value ([2]; 1 day, 4.2 µmol, 20 mg P-407)?
Answer: The value was 0.

Question: And the “HPMC, heart perivascular myxomatous change score” value ([2]; 3 days, 1.3 µmol, 12 mg P-407)?
Answer: Its value is 0.

Question: What about the “HT, heart telangiectasia score” value ([2]; 3 days, 1.3 µmol, 12 mg P-407) of the same compound?
Answer: The value was 0.

Question: What about the “KCHMV, Kupffer cell hyperplasia and microvesicular vacuolation score” value ([2]; 3 days, 1.3 µmol, 12 mg P-407) of the same compound?
Answer: The value was 0.

Question: And the “HPMC, heart perivascular myxomatous change score” value ([2]; 3 days, 4.2 µmol, 20 mg P-407)?
Answer: Its value is 0.

Question: And the “HPMC, heart perivascular myxomatous change score” value ([2]; 5 days, 1.3 µmol, 12 mg P-407)?
Answer: Its value is 0.

Question: What about the “HT, heart telangiectasia score” value ([2]; 5 days, 1.3 µmol, 12 mg P-407) of the same compound?
Answer: The value was 0.
